# Data: PMC3448056, “2-Benzamido-N-(1H-benzo[d]imidazol-2-yl)thiazole-4-carboxamide derivatives as potent inhibitors of CK1δ/ε” (Amino Acids, 2012)
# Several values for one entry are separate records, joined by “and”; a condition that tells them apart may be missing. Equal entries are not always repeated. Where two headings read alike, the source gives them in different places.
# How the values were obtained:
# GST-rat CK1δ^M82F = molecular target: T1, GST-rat CK1δ^M82F (Rattus norvegicus, UniProt Q06486, M82F); assay: In vitro kinase assay, gatekeeper mutant; format: biochemical; settings: inhibitor at its determined IC50 concentration (Fig. 7)
# T1 construct: made in house; host or cells: bacteria (pGEX-2T)
# T1 sequence (Q06486 1-415 M82F): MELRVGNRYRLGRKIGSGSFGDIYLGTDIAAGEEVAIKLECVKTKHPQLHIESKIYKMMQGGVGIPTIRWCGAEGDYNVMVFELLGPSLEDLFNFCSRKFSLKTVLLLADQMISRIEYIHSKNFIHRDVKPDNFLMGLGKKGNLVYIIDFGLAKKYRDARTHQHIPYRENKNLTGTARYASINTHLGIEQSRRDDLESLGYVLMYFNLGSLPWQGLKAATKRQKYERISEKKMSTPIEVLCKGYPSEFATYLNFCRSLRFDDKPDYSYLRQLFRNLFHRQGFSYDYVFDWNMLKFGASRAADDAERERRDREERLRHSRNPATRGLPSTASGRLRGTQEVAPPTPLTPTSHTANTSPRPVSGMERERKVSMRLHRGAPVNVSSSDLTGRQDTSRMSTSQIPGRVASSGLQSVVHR
# Procedure: For the expression of wt rat CK1δ and rat CK1δ^M82F as glutathione S-transferase fusion proteins the plasmids pGEX-2T-CK1δ (FP449) (Knippschild et al. [1997]) and pGEX-2T-CK1δ^M82F (FP1153) (Peifer et al. [2009]) were used.
# (§1) Expression and purification of the GST-fusion proteins GST-mouse p53^1–64 (FP267), GST-rat CK1δ (FP449), GST-rat CK1δ^M82F (FP1153), GST-mouse CK1δTV1 (FP1170), and GST-mouse CK1δTV2 (FP1171) was carried out as described elsewhere (Wolff et al. [2005]). Expression of fusion proteins FP1170 and 1171 was either performed at 37°C for 2 h, or at 15°C for 14 h. FP449 and FP1153 were always expressed at 15°C for 14 h.
# (§2) In vitro kinase assays were carried out in the presence of various potential inhibitors of CK1δ at an ATP concentration of 0.01 mM and dimethyl sulfoxide (DMSO) solvent control as described previously (Knippschild et al. [1996]). Where indicated higher ATP concentrations (0.05, 0.1, 0.25 and 0.5 mM) were used. The fusion protein GST-mouse p53^1−64 (FP267) was used as substrate. Recombinant CK1δ kinase domain (CK1δkd, NEB, Frankfurt am Main, Germany), GST-rat CK1δ (FP449), GST-rat CK1δ^M82F (FP1153), GST-mouse CK1δTV1, GST-mouse CK1δTV2 and recombinant human CK1ε (Invitrogen, Karlsruhe, Germany) were used as sources of enzyme. Phosphorylated proteins were separated by SDS-PAGE and the protein bands were visualized on dried gels by autoradiography. The phosphorylated protein bands were excised and quantified by Cherenkov counting.
# Previously it has been shown that methionine 82 plays an important role as gatekeeper residue in the docking mode of isoxazoles to the ATP binding pocket since mutation of methionine 82 to phenylalanine blocks binding of this class of CK1δ specific inhibitors (Peifer et al. [2009]) while still binding ATP. Therefore, we now analyzed the effects of exchanging methionine 82 to phenylalanine on the ability of compounds 4, 5 and 6 to inhibit CK1δ activity.
# GST-mouse CK1δTV1 = molecular target: T2, GST-mouse CK1δTV1 (Mus musculus, UniProt Q9DC28); assay: In vitro kinase assay, GST-mouse CK1δTV1; format: biochemical
# T2 construct: made in house; host or cells: bacteria (pGEX-2T)
# Source text: CK1δTV1 and 2 (transcription variants 1 and 2) were PCR amplified from mouse cDNA (5′-primer TV1 and 2: 5′-[…]-3′, 3′-primer TV1: 5′-[…]-3′, 3′-primer TV2: 5′-[…]-3′) and cloned into pcDNA3.1/V5-His© TOPO® TA cloning vector (Invitrogen, Karlsruhe, Germany) before being subcloned into pGEX-2T expression vector via BamHI to generate plasmids pGEX-2T-mouse CK1δTV1 (FP1170) and pGEX-2T-mouse CK1δTV2 (FP1171).
# as §1, §2
# CK1δkd = molecular target: T3, CK1δkd (Rattus norvegicus, UniProt Q06486); assay: In vitro kinase assay, CK1δ kinase domain; format: biochemical; settings: for inhibition of CK1δkd in initial screen: inhibitor 10 μM, 10 μM ATP (Fig. 1a); for mode of inhibition: inhibitor at IC50 concentration, ATP 0.01-0.5 mM (Fig. 6)
# T3 construct: Recombinant CK1δ kinase domain (CK1δkd, NEB, Frankfurt am Main, Germany); purchased NEB, Frankfurt am Main, Germany
# T3 sequence (Q06486 9-277 limits assumed): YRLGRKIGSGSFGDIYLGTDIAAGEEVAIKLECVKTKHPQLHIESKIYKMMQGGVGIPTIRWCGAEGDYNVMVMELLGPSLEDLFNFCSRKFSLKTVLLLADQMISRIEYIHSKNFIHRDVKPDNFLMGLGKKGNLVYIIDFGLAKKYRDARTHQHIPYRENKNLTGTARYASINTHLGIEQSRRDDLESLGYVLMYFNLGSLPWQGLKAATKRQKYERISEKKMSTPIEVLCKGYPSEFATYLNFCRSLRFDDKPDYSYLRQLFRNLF
# mKSA cells = assay: Flow cytometry cell cycle analysis; format: cell-based, mouse; settings: 2 and 4 μM, 48 h, range stated jointly for Frwt648 and mKSA and compounds 5 and 6
# Procedure: Frwt648 cells [generated by SV40-transformation of F111 cells; (Hinzpeter and Deppert [1987])] and mKSA cells [SV40-transformed Balb/c fibroblasts; (Kit et al. [1969])] were grown in Dulbecco’s modified Eagle’s medium (DMEM) supplemented with 5% fetal calf serum (FCS; Biochrom, Berlin, Germany). The fibrosarcoma cell line HT1080 (Rasheed et al. [1974]) was grown in DMEM containing 10% FCS and 2 mM glutamine while both the prostate cancer cell line DU-145 (Stone et al. [1978]) and the ovary tissue cancer cell line OVCAR-3 (Hamilton et al. [1983]) were maintained in RPMI-1640 supplemented with 10% FCS. The pancreatic cancer cell line Colo357 (Morgan et al. [1980]) was grown in DMEM/RPMI (1:1) and the colon adenocarcinoma cell line SW480 (Leibovitz et al. [1976]) in Leibovitz L-15 medium, both containing 10% FCS and 2 mM glutamine. All media were supplemented with 100 U/ml penicillin and 100 μg/ml streptomycin (Gibco, Karlsruhe, Germany) and all cell lines were grown at 37°C in a humidified 5% carbon dioxide atmosphere.
# Subconfluent Frwt648, mKSA, Colo357, OVCAR-3, HT1080, DU-145 and SW480 cells were treated with 2 or 4 μM of compounds 5 or 6 for 48 h. Untreated and DMSO treated cells served as control. Cells were harvested, washed once with phosphate-buffered saline (PBS), and prepared for cell cycle analysis using the “Cycle Test Plus Kit” (BD, San Jose, USA). […]
# human CK1ε = molecular target: T4, human CK1ε (Homo sapiens, UniProt P49674); assay: In vitro kinase assay, CK1ε; format: biochemical; settings: for inhibition of CK1ε in initial screen: inhibitor 10 μM, 10 μM ATP (Fig. 1b)
# T4 construct: purchased Invitrogen, Karlsruhe, Germany
# [1] = 0.01 mM ATP, substrate GST-mouse p53^1-64, mean ± SD, read-out: IC50 (μM) GST-CK1δ TV1
# [2] = 0.01 mM ATP, substrate GST-mouse p53^1-64, mean ± SD
# T2 sequence (Q9DC28 whole entry): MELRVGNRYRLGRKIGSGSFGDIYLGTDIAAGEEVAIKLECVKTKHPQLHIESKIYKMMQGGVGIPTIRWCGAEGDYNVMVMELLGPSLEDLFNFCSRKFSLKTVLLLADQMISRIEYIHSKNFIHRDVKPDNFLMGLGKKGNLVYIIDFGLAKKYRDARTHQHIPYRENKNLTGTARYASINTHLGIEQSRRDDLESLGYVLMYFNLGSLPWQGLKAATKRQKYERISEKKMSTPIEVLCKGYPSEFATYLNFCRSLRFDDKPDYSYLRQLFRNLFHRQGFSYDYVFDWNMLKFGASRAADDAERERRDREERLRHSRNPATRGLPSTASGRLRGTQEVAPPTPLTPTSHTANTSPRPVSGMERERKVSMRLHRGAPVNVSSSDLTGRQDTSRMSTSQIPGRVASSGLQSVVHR
# T4 sequence (P49674 whole entry): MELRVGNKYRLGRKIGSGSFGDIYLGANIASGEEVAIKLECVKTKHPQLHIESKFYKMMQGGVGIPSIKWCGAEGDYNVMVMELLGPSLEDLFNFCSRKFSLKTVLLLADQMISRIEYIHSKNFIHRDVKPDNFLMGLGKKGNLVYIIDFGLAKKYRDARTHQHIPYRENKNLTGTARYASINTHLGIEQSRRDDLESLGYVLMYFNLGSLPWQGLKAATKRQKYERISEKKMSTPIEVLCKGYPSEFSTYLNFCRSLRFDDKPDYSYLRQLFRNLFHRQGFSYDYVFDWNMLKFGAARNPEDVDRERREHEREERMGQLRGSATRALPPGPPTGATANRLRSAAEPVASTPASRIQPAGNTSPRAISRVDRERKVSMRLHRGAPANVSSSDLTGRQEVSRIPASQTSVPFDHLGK
kinase activity of GST-CK1δ^M82F in comparison with inhibition of GST-wt CK1δ (GST-rat CK1δ^M82F),IC50 (GST-mouse CK1δTV1; [1]) [µM],IC50 (CK1δkd; [2]) [µM],inhibition of CK1δkd in initial screen (CK1δkd),mode of inhibition (CK1δkd),IC50 (human CK1ε; [2]),inhibition of CK1ε in initial screen (human CK1ε),"IC50 (GST-mouse CK1δTV1; IC50 CK1δTV1, 2 h, enzyme induced for 2 h at 37°C) [µM]","IC50 (GST-mouse CK1δTV1; enzyme induced for 14 h at 15°C, read-out: IC50 CK1δTV1, 14 h) [µM]",Compound,dead cells (mKSA cells)
similarly or even less affected,0.048 ± 0.02,0.085 ± 0.01,significant inhibition,ATP competitive inhibitors,0.0326 µM and 0.033 µM,significant inhibition,–,–,"O=C(Nc1nc2cc(Cl)c(F)cc2[nH]1)c1csc(NC(=O)c2ccccc2OC(F)(F)F)n1 [Compound 6, N-(5-Chloro-6-fluoro-1H-benzo[d]imidazol-2-yl)-2-(2-(trifluoromethoxy)benzamido)thiazole-4-carboxamide]",35–98%
much more affected,0.022 ± 0.02,–,significant inhibition,ATP competitive inhibitors,–,significant inhibition,0.066,0.023,"O=C(Nc1nc2ccc(C(F)(F)F)cc2[nH]1)c1csc(NC(=O)c2ccccc2OC(F)(F)F)n1 [Compound 5, 2-(2-(Trifluoromethoxy)benzamido)-N-(6-(trifluoromethyl)-1H-benzo[d]imidazol-2-yl)thiazole-4-carboxamide]",35–98%
